Test results taken from the NIST ThermoML archive (doi:10.1016/j.jct.2015.05.024).

Tests used:
[1] = 100 kPa, Liquid; for mass density: Vibrating tube method; for speed of sound: Frequency=5 MHz, Pulse-echo method
[2] = xn = mol fraction of the nth substance listed; settings: 100 kPa, Liquid, x2 = 0; for mass density: Vibrating tube method; for speed of sound: Frequency=5 MHz, Pulse-echo method

OCCOCCOCCO [triethylene glycol]
[1]
Settings	mass density [kg/m3]	speed of sound [m/s]
278.15 K	1135.14	–
283.15 K	1131.29	–
288.15 K	1127.43	1643.9
293.15 K	1123.56	1629
298.15 K	1119.69	1613.5
303.15 K	1115.81	1599.1
308.15 K	1111.92	1584.6
313.15 K	1108.03	1569.1
318.15 K	1104.13	1554.7
323.15 K	1100.22	–
328.15 K	1096.3	–
333.15 K	1092.38	–

O [water]
[1]
Settings	mass density [kg/m3]	speed of sound [m/s]
278.15 K	999.965	–
283.15 K	999.698	–
313.15 K	–	1528.8
318.15 K	–	1536.7
323.15 K	988.027	–
328.15 K	985.682	–
333.15 K	983.186	–

O [water] + OCCOCCOCCO
[2]
Settings	mass density [kg/m3]	speed of sound [m/s]
278.15 K	999.965	–
283.15 K	999.698	–
313.15 K	–	1528.8
318.15 K	–	1536.7
323.15 K	988.027	–
328.15 K	985.682	–
333.15 K	983.186	–
